From patent US20220282217A1, “COMPOSITIONS AND METHODS FOR PREPARING T CELL COMPOSITIONS AND USES THEREOF” (priority 2019, published 2022)
Where a SMILES comes first, the peptide text is derived from it.

biological target: T1, HLA-A02.01 (Homo sapiens, UniProt P04439, D140Y/D185E/D98H/E176V/E277Q/G131W/G231S/I119V/I121R/I166T/I218V/N151K/N90K/P208A/P217A/Q86G/Q94H/R138H/R169H); assay: Class I MHC peptide binding stability (pMHC-I dissociation, 125I-labeled light chain); conditions: HLA Allele A02.01; time for half of the complexes to dissociate at 37° C.
T1 construct: made in house; host or cells: E. coli

Molecule | Measured stability
CC(C)C[C@H](NC(=O)[C@@H](N)CCCCN)C(=O)N[C@H](C(=O)N[C@H](C(=O)N[C@H](C(=O)NCC(=O)N[C@@H](C)C(=O)N[C@@H](CC(=O)O)C(=O)NCC(=O)N[C@H](C(=O)O)C(C)C)C(C)C)C(C)C)C(C)C | 0.9 h
CC(C)C[C@H](N)C(=O)N[C@H](C(=O)N[C@H](C(=O)N[C@H](C(=O)NCC(=O)N[C@@H](C)C(=O)N[C@H](C(=O)NCC(=O)N[C@H](C(=O)O)C(C)C)C(C)C)C(C)C)C(C)C)C(C)C | 0.6 h

same assay, conditions: allele A02.01

Molecule | Stability (T1/2 (h))
CC[C@H](C)[C@H](NC(=O)[C@@H](N)C(C)C)C(=O)N[C@H](C(=O)N[C@@H](CCC(=O)O)C(=O)N[C@@H](Cc1ccc(O)cc1)C(=O)N[C@@H](CS)C(=O)N[C@@H](CS)C(=O)N[C@@H](Cc1ccc(O)cc1)C(=O)NCC(=O)O)[C@@H](C)CC (H-VIIEYCCYG-OH; N-terminus and C-terminus assumed) | 0.5 h
CC(C)C[C@H](NC(=O)[C@@H](N)CCCCN)C(=O)N[C@H](C(=O)N[C@H](C(=O)N[C@H](C(=O)NCC(=O)N[C@@H](C)C(=O)N[C@@H](CC(=O)O)C(=O)NCC(=O)N[C@H](C(=O)O)C(C)C)C(C)C)C(C)C)C(C)C | 0.9 h
CC(C)C[C@H](N)C(=O)N[C@H](C(=O)N[C@H](C(=O)N[C@H](C(=O)NCC(=O)N[C@@H](C)C(=O)N[C@H](C(=O)NCC(=O)N[C@H](C(=O)O)C(C)C)C(C)C)C(C)C)C(C)C)C(C)C | 0.6 h
CC(C)C[C@H](NC(=O)[C@H](CO)NC(=O)[C@H](CS)NC(=O)[C@H](CCC(=O)O)NC(=O)[C@H](Cc1c[nH]c2ccccc12)NC(=O)[C@H](CC(C)C)NC(=O)[C@H](C)NC(=O)[C@H](CC(C)C)NC(=O)[C@H](CC(C)C)NC(=O)[C@@H](N)Cc1ccccc1)C(=O)O | 10.8 h

The next lines start with the values.

Stability (T1/2 (h)) | Molecule
1.5 h | LQMDFLVEIPA
0.8 h | CSCC[C@H](NC(=O)[C@H](CS)NC(=O)[C@H](CO)NC(=O)[C@H](CO)NC(=O)[C@H](CC(N)=O)NC(=O)[C@H](CS)NC(=O)[C@H](CCSC)NC(=O)[C@@H](N)Cc1ccc(O)cc1)C(=O)NCC(=O)N[C@@H](CO)C(=O)O (H-YMCNSSCMGS-OH; N-terminus and C-terminus assumed)
4 h | CC(C)C[C@H](NC(=O)[C@H](CO)NC(=O)[C@H](CS)NC(=O)[C@H](CCC(=O)O)NC(=O)[C@H](Cc1c[nH]c2ccccc12)NC(=O)[C@H](CC(C)C)NC(=O)[C@H](C)NC(=O)[C@H](CC(C)C)NC(=O)[C@@H](N)CC(C)C)C(=O)O
1.2 h | CC[C@H](C)[C@H](N)C(=O)N[C@H](C(=O)N[C@H](C(=O)N[C@@H](CCC(=O)O)C(=O)N[C@@H](Cc1ccc(O)cc1)C(=O)N[C@@H](CS)C(=O)N[C@@H](Cc1ccccc1)C(=O)N[C@@H](Cc1ccc(O)cc1)C(=O)NCC(=O)O)[C@@H](C)CC)[C@@H](C)CC (H-IIIEYCFYG-OH; N-terminus and C-terminus assumed)
6.4 h | CSCC[C@H](NC(=O)[C@H](CCC(N)=O)NC(=O)[C@H](CC(C)C)NC(=O)[C@@H](NC(=O)[C@@H](N)CCCCN)C(C)C)C(=O)N[C@@H](CC(=O)O)C(=O)N[C@@H](Cc1ccccc1)C(=O)N[C@@H](CC(C)C)C(=O)N[C@H](C(=O)O)C(C)C (H-KVLQMDFLV-OH; N-terminus and C-terminus assumed)

biological target: HLA-A02.01 (Homo sapiens, UniProt P04439, D140Y/D185E/D98H/E176V/E277Q/G131W/G231S/I119V/I121R/I166T/I218V/L300P/L318F/N151K/N90K/P208A/P217A/Q86G/Q94H/R138H/R169H/T345S); assay: Class I MHC peptide binding affinity (displacement of radiolabeled reference peptide); conditions: BTK C481S peptide; HLA Allele A02.01; read-out: Affinity
Method in brief: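 Read-out: radioactivity of reference peptide retained on MHCI, separated from free label by gel-filtration size exclusion. Competing peptides are titrated against the preformed complexes and incubated two days beforehand.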

Molecule | IC50
CSCC[C@H](N)C(=O)N[C@@H](C)C(=O)N[C@@H](CC(N)=O)C(=O)NCC(=O)N[C@@H](CO)C(=O)N[C@@H](CC(C)C)C(=O)N[C@@H](CC(C)C)C(=O)N[C@@H](CC(N)=O)C(=O)N[C@@H](Cc1ccc(O)cc1)C(=O)N[C@@H](CC(C)C)C(=O)O | 1010 nM

same assay, conditions: Observed Affinity (IC50; (nM)), allele A02.01

Molecule | IC50
CC(C)C[C@H](NC(=O)[C@H](CC(=O)O)NC(=O)[C@H](CO)NC(=O)[C@H](CCC(N)=O)NC(=O)[C@@H](N)CCC(N)=O)C(=O)N[C@@H](CCC(N)=O)C(=O)N1CCC[C@H]1C(=O)N1CCC[C@H]1C(=O)N[C@@H](C)C(=O)O (H-QQSDLQPPA-OH; N-terminus and C-terminus assumed) | 70 nM
CC[C@H](C)[C@H](NC(=O)[C@H](CCC(N)=O)NC(=O)[C@@H](N)[C@@H](C)O)C(=O)N[C@@H](CO)C(=O)N[C@@H](CO)C(=O)N[C@@H](C)C(=O)N[C@H](C(=O)N[C@@H](CCC(=O)O)C(=O)N[C@@H](Cc1ccc(O)cc1)C(=O)N[C@@H](CC(C)C)C(=O)O)[C@@H](C)O (H-TQISSATEYL-OH; N-terminus and C-terminus assumed) | 2640 nM

same assay, conditions: allele A02.01; read-out: Observed Affinity (IC50; (nM))

Molecule | IC50
CC[C@H](C)[C@H](NC(=O)[C@H](CCSC)NC(=O)[C@@H](NC(=O)CNC(=O)[C@@H](NC(=O)[C@@H](N)CCC(N)=O)[C@@H](C)O)C(C)C)C(=O)N[C@@H](CS)C(=O)N[C@@H](C)C(=O)N[C@@H](Cc1ccc(O)cc1)C(=O)N[C@@H](CC(C)C)C(=O)O (H-QTGVMICAYL-OH; N-terminus and C-terminus assumed) | 9760 nM
CC(C)C[C@H](NC(=O)[C@@H](N)C(C)C)C(=O)N[C@@H](CCC(N)=O)C(=O)N[C@@H](CCCNC(=N)N)C(=O)N[C@@H](Cc1ccccc1)C(=O)N[C@@H](CCCNC(=N)N)C(=O)N[C@@H](Cc1ccccc1)C(=O)N[C@H](C(=O)N[C@@H](Cc1c[nH]cn1)C(=O)N[C@H](C(=O)O)C(C)C)[C@@H](C)O | 107 nM
CSCC[C@H](N)C(=O)N[C@@H](C)C(=O)N[C@@H](CC(N)=O)C(=O)NCC(=O)N[C@@H](CO)C(=O)N[C@@H](CC(C)C)C(=O)N[C@@H](CC(C)C)C(=O)N[C@@H](CC(N)=O)C(=O)N[C@@H](Cc1ccc(O)cc1)C(=O)N[C@@H](CC(C)C)C(=O)O | 1080 nM
CC[C@H](C)[C@H](NC(=O)[C@@H](NC(=O)[C@@H](N)CC(C)C)[C@@H](C)O)C(=O)N[C@@H](CC(N)=O)C(=O)N[C@@H](CCCCN)C(=O)N[C@@H](CCC(=O)O)C(=O)N[C@@H](CCC(=O)O)C(=O)N[C@@H](C)C(=O)N[C@@H](CC(C)C)C(=O)O [LTINKEEAL] | 4410 nM
CC[C@H](C)[C@H](NC(=O)[C@@H]1CCCN1C(=O)[C@H](CCCNC(=N)N)NC(=O)[C@H](CCCNC(=N)N)NC(=O)[C@H](CC(N)=O)NC(=O)[C@H](CCSC)NC(=O)[C@H](CO)NC(=O)CNC(=O)[C@H](CCSC)NC(=O)[C@@H](N)CS)C(=O)O (H-CMGSMNRRPI-OH; N-terminus and C-terminus assumed) | 1990 nM

Results, then the molecule that gave them:

IC50 | Molecule
68 nM | LQMDFLVEIPA
6.7 nM | CC[C@H](C)[C@H](N)C(=O)N[C@@H](CC(C)C)C(=O)N[C@@H](CC(C)C)C(=O)N1CCC[C@H]1C(=O)N[C@@H](CCC(=O)O)C(=O)N[C@@H](CC(=O)O)C(=O)N[C@H](C(=O)N1CCC[C@H]1C(=O)N1CCC[C@H]1C(=O)N[C@@H](CC(C)C)C(=O)O)[C@@H](C)O (H-ILLPEDTPPL-OH; N-terminus and C-terminus assumed)
10500 nM | CC(C)C[C@H](NC(=O)[C@H](CC(C)C)NC(=O)CNC(=O)[C@H](Cc1ccc(O)cc1)NC(=O)[C@H](CC(C)C)NC(=O)[C@@H]1CCCN1C(=O)[C@@H](NC(=O)[C@@H](NC(=O)[C@@H](N)CC(N)=O)C(C)C)C(C)C)C(=O)O (H-NVVPLYGLL-OH; N-terminus and C-terminus assumed)
26.5 nM | CC(C)C[C@H](NC(=O)[C@H](CO)NC(=O)[C@@H](NC(=O)[C@@H](NC(=O)[C@H](CO)NC(=O)[C@H](CO)NC(=O)[C@H](Cc1c[nH]c2ccccc12)NC(=O)[C@H](CCC(N)=O)NC(=O)[C@@H](N)CCCCN)C(C)C)[C@@H](C)O)C(=O)O (H-KQWSSVTSL-OH; N-terminus and C-terminus assumed)
677 nM | CC(C)C[C@H](NC(=O)[C@@H](N)CC(C)C)C(=O)N[C@@H](CCC(N)=O)C(=O)N[C@H](C(=O)N[C@H](C(=O)N[C@@H](CCC(N)=O)C(=O)N[C@H](C(=O)N[C@@H](CO)C(=O)N[C@@H](Cc1ccccc1)C(=O)N[C@@H](C)C(=O)O)[C@@H](C)O)[C@@H](C)O)C(C)C (H-LLQVTQTSFA-OH; N-terminus and C-terminus assumed)
1210 nM | CC(C)C[C@H](NC(=O)[C@H](CCCNC(=N)N)NC(=O)[C@@H](N)C(C)C)C(=O)N[C@@H](CO)C(=O)N[C@@H](CO)C(=O)N[C@@H](CS)C(=O)N[C@H](C(=O)N1CCC[C@H]1C(=O)N[C@H](C(=O)N[C@@H](C)C(=O)O)C(C)C)C(C)C (H-VRLSSCVPVA-OH; N-terminus and C-terminus assumed)
295 nM | CC(C)C[C@H](NC(=O)[C@@H](N)C(C)C)C(=O)N[C@H](C(=O)N[C@H](C(=O)N[C@H](C(=O)N[C@@H](CO)C(=O)N[C@H](C(=O)N[C@@H](CC(=O)O)C(=O)N[C@H](C(=O)O)C(C)C)[C@@H](C)O)[C@@H](C)O)C(C)C)[C@@H](C)O (H-VLTVTSTDV-OH)
1060 nM | CC[C@H](C)[C@H](NC(=O)[C@H](Cc1ccc(O)cc1)NC(=O)[C@H](CC(C)C)NC(=O)[C@@H](N)CO)C(=O)N[C@H](C(=O)NCC(=O)N[C@@H](Cc1ccccc1)C(=O)N[C@@H](Cc1ccc(O)cc1)C(=O)NCC(=O)O)C(C)C (H-SLYIVGFYG-OH; N-terminus and C-terminus assumed)
670 nM | CC(C)C[C@H](NC(=O)[C@H](CO)NC(=O)[C@H](CCCNC(=N)N)NC(=O)[C@H](Cc1c[nH]c2ccccc12)NC(=O)[C@H](CCC(N)=O)NC(=O)[C@@H](NC(=O)CNC(=O)[C@H](C)NC(=O)[C@H](CCC(N)=O)NC(=O)[C@H](C)N)C(C)C)C(=O)O (H-AQAGVQWRSL-OH; N-terminus and C-terminus assumed)
471 nM | CC(C)C[C@H](NC(=O)[C@H](C)N)C(=O)N[C@@H](Cc1ccccc1)C(=O)N[C@@H](Cc1ccccc1)C(=O)N[C@@H](Cc1ccccc1)C(=O)N[C@@H](Cc1ccccc1)C(=O)N[C@@H](Cc1ccccc1)C(=O)N[C@@H](CCC(=O)O)C(=O)N[C@H](C(=O)O)[C@@H](C)O (H-ALFFFFFET-OH; N-terminus and C-terminus assumed)
14 nM | CC(C)C[C@H](NC(=O)[C@H](C)N)C(=O)N[C@@H](CC(N)=O)C(=O)N[C@@H](CO)C(=O)N[C@@H](CCC(=O)O)C(=O)N[C@@H](C)C(=O)N[C@@H](CC(C)C)C(=O)N[C@@H](CO)C(=O)N[C@H](C(=O)O)C(C)C (H-ALNSEALSV-OH)
1130 nM | CC[C@H](C)[C@H](NC(=O)[C@@H]1CCCN1C(=O)[C@H](CCCNC(=N)N)NC(=O)[C@H](Cc1c[nH]c2ccccc12)NC(=O)[C@H](CC(N)=O)NC(=O)[C@H](CCSC)NC(=O)CN)C(=O)N[C@@H](CC(C)C)C(=O)N[C@H](C(=O)O)[C@@H](C)O (H-GMNWRPILT-OH; N-terminus and C-terminus assumed)
